Measured values taken from ChEMBL document CHEMBL1201862, “PubChem BioAssay data set” (2004).
Active and inactive are the calls of the source.

What was measured:
[1] = target: Peroxisome proliferator-activated receptor gamma/Nuclear receptor coactivator 2 (Homo sapiens, UniProt P37231); assay type: functional;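 further: agonist potency for raising coactivator recruitment to the receptor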
[2] = target: T1, Aminopeptidase N (Plasmodium falciparum FcB1/Columbia, UniProt O96935); test: P. falciparum M1AAP inhibitors, biochemical, fluorogenic H-Leu-NHMec substrate, 1536-well (AID 1445); set-up: species or system Plasmodium falciparum 3D7, 3D7
T1 sequence (O96935 whole entry): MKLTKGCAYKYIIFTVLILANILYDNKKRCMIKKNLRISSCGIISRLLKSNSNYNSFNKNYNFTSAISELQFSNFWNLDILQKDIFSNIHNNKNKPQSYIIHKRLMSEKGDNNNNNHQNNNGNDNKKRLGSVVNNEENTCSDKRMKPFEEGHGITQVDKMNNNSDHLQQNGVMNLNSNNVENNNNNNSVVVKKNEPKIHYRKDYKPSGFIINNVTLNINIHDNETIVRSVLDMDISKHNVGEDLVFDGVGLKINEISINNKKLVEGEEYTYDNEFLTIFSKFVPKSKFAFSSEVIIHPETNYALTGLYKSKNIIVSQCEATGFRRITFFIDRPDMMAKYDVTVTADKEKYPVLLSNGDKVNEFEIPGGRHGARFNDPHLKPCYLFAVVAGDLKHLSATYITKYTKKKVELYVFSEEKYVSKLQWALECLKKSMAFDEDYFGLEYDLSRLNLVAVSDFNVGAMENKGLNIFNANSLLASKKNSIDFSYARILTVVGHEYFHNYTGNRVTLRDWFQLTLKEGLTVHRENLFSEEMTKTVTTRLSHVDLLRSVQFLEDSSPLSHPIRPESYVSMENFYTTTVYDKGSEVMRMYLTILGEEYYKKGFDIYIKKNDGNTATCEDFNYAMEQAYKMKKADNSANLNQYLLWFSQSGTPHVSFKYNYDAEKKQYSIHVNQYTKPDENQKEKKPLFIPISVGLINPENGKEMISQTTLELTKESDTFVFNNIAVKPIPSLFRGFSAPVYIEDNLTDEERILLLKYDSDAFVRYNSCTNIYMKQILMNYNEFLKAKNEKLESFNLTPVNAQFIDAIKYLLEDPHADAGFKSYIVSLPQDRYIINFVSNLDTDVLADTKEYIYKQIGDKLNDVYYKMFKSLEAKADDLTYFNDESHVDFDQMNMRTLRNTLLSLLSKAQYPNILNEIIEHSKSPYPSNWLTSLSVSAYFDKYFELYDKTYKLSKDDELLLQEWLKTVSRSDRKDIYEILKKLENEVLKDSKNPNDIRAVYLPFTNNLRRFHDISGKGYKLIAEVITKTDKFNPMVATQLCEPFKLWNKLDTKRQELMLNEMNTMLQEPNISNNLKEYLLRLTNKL

[3] = target: Peroxisome proliferator-activated receptor gamma/Nuclear receptor coactivator 1 (Homo sapiens, UniProt P37231); assay type: functional;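 further: agonist potency as compounds enhance coactivator SRC-1 recruitment to PPARgamma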
[4] = target: Peroxisome proliferator-activated receptor gamma/Nuclear receptor coactivator 3 (Homo sapiens, UniProt P37231); assay type: functional;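 further: agonist potency for raising coactivator recruitment to the receptor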
[5] = target: DNA dC->dU-editing enzyme APOBEC-3G (Homo sapiens, UniProt Q9HC16); assay type: functional;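 further: Dose-response counterscreen measuring inhibition of APOBEC3G DNA deaminase activity, run while confirming APOBEC3A inhibitors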
Chain of DNA dC->dU-editing enzyme APOBEC-3G (Q9HC16 whole entry): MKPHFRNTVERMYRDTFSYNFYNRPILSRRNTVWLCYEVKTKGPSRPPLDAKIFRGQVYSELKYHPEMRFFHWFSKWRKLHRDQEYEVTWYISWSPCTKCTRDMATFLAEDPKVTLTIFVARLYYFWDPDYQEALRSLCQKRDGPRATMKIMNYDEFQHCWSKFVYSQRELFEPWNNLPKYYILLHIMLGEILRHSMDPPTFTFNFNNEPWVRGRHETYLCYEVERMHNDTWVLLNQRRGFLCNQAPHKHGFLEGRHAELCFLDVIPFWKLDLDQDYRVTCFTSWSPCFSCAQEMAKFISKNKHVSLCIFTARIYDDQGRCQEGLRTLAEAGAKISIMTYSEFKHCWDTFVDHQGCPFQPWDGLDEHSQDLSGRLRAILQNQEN

[6] = target: DNA dC->dU-editing enzyme APOBEC-3A (Homo sapiens, UniProt P31941); test: Dose Response confirmation of small molecule APOBEC3A DNA Deaminase Inhibitors via a fluorescence-based single-stranded DNA deaminase assay. [Related pubchem assays (depositor defined):AID493011, AID493024]; assay type: functional
Chain of DNA dC->dU-editing enzyme APOBEC-3A (P31941 whole entry): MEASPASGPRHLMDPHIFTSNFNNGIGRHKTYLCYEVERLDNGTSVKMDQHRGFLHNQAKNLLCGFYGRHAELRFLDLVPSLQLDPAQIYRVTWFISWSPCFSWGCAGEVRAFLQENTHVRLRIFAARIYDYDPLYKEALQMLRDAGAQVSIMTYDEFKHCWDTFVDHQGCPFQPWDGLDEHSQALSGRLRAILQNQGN

[7] = A cytotoxicity screen of small molecule inhibitors of the PhoP region in Salmonella typhi identified in the primary screen. [Related pubchem assays: 1850, 1864, 1985 ]; assay type: functional
[8] = cells; assay type: functional
[9] = target: T2, Microphthalmia-associated transcription factor (Homo sapiens, UniProt O75030); test: TRPM1 promoter luciferase signal decrease, dose response, MITF inhibitor project, cell-based, SK-MEL-5, cherry-picked, set 3 (AID 493073); assay type: functional
T2 sequence (O75030 whole entry): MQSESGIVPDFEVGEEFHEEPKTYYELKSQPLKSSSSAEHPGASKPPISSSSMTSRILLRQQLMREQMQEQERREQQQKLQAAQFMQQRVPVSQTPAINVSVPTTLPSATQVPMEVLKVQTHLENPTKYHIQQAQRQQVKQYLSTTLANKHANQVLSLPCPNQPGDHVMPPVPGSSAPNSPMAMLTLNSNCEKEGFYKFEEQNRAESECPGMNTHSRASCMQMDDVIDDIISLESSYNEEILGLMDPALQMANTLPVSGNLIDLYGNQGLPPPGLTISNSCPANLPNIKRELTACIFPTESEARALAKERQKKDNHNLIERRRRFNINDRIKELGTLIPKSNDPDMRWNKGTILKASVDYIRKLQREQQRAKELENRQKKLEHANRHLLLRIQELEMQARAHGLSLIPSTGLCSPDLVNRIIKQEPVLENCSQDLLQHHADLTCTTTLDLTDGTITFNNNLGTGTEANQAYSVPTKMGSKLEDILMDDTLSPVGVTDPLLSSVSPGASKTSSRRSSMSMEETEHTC

[10] = THP-1 cell cytotoxicity, dose response, cytotoxicity control for non-replicating M. tuberculosis project (AID 489025); assay type: functional
[11] = Vero E6 cell cytotoxicity, dose response, cytotoxicity control for non-replicating M. tuberculosis project, secondary assay (AID 492998); assay type: functional, VeroE6; conditions: Vero C1008
[12] = target: T3, Kappa-type opioid receptor (Homo sapiens, UniProt P41145); assay type: functional
T3 sequence (P41145 whole entry): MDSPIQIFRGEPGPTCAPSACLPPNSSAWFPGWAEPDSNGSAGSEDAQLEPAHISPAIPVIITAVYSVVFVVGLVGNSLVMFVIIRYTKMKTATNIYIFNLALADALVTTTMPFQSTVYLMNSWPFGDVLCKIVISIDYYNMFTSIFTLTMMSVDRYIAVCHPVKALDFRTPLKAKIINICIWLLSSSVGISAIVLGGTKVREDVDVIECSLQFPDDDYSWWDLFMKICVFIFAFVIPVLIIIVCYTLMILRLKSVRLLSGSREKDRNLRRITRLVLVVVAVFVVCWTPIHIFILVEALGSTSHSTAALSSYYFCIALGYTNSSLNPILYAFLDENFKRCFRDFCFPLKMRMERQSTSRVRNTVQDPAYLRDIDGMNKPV

[13] = target: T3, Kappa-type opioid receptor; assay type: functional; remark: listed apart in the source
[14] = target: T4, Beta-galactosidase (Escherichia coli, UniProt Q8VNN2); assay type: functional
T4 sequence (Q8VNN2 whole entry): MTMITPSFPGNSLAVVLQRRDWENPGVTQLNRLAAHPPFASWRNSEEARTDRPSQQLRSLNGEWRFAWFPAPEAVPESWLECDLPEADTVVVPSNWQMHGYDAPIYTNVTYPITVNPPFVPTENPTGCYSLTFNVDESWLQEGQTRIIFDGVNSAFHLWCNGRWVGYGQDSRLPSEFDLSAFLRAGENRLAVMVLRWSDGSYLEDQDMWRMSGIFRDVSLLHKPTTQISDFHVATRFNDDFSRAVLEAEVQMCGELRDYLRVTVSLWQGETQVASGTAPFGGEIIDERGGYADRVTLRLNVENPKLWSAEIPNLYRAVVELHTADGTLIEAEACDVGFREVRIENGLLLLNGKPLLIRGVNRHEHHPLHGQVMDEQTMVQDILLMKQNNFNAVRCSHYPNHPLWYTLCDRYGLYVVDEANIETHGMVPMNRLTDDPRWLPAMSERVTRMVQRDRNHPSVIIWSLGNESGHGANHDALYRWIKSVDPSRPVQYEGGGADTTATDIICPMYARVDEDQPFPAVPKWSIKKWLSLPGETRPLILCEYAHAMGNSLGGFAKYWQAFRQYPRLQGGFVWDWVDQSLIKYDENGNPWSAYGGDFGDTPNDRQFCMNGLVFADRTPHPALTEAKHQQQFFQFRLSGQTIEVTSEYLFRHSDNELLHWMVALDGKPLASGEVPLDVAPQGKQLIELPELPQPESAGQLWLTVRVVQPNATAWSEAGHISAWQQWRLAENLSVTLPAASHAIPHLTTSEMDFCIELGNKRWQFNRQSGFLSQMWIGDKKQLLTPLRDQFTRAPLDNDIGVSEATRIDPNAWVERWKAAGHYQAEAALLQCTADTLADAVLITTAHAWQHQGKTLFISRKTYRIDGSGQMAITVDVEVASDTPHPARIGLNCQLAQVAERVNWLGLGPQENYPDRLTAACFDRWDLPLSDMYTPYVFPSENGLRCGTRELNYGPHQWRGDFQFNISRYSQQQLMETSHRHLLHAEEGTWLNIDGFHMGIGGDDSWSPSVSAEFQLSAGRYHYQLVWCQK

[15] = target: T5, Ubiquitin-conjugating enzyme E2 N (Homo sapiens, UniProt P61088); assay type: functional
T5 sequence (P61088 whole entry): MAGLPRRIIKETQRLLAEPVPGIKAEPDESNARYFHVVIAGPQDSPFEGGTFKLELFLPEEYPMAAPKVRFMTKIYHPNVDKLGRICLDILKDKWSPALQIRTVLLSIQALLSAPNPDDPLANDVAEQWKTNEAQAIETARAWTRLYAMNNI

[16] = target: T5, Ubiquitin-conjugating enzyme E2 N; assay type: functional; remark: listed apart in the source
[17] = target: T6, Bcl-2-related protein A1 (Mus musculus, UniProt Q07440); assay type: functional;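 further: confirmatory dose–response counterscreen on Bfl-1, used to check hits from a UBC13 polyubiquitin inhibitor campaign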
T6 sequence (Q07440 whole entry): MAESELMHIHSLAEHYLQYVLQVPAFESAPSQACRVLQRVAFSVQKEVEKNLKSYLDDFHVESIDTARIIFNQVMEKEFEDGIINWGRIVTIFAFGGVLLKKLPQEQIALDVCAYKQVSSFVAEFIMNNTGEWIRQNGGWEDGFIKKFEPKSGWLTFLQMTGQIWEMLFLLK

[18] = target: Glyceraldehyde-3-phosphate dehydrogenase (Homo sapiens, UniProt P04406)
Chain of Glyceraldehyde-3-phosphate dehydrogenase (P04406 whole entry): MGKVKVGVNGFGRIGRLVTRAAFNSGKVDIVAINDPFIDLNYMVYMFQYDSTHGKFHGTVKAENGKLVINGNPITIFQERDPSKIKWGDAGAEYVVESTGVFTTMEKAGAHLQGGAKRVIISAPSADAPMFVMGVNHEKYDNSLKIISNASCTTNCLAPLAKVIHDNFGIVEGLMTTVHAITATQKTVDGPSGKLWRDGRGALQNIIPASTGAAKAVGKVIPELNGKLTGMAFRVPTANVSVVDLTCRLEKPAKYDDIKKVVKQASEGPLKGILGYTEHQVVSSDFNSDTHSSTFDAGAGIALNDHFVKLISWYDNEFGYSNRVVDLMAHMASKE

[19] = target: T7, Heat shock factor protein 1 (Mus musculus, UniProt P38532); test: HSF1 potentiators in luciferase reporter cells, confirmation, cell-based, NIH3T3, luminescence, dose retest (AID 435004); assay type: functional;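 further: stress induced by proteasome inhibitor MG132 added 30 min after compound; luciferase reporter driven by HSF1 response element in NIH3T3 cells; actives raise luminescence as potentiators of the MG132 stress response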
T7 sequence (P38532 whole entry): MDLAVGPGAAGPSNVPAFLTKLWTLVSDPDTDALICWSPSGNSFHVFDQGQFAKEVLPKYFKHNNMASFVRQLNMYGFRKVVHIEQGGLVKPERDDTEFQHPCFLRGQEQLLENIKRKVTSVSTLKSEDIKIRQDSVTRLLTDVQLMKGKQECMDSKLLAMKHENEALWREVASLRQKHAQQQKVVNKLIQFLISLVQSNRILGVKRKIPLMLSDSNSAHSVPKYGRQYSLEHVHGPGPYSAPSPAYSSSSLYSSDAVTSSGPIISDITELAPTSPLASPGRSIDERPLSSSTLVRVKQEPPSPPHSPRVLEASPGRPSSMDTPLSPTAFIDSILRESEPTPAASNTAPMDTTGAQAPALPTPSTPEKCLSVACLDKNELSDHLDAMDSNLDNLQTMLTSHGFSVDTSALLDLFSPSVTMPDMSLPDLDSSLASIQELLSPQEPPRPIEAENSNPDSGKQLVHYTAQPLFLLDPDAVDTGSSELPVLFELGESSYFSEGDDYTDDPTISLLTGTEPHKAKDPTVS

[20] = target: T4, Beta-galactosidase; test: PubChem AID 485352; assay type: functional
[21] = test system: Streptococcus; test: Group A Streptococcus viability loss, dose response, counter-screen for streptokinase expression inhibitor project, luminescence, BacTiterGlo (AID 1915); assay type: functional, organism-based;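 further: potency for reduction of bacterial viability or growth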
[22] = test system: Streptococcus sp. 'group A'; test: growth inhibition of control SK(-) GAS strain, dose response, counter-screen for streptokinase expression inhibitor project, luminescence, kanamycin, BacTiterGlo, confirmation (AID 1900); assay type: functional, organism-based
[23] = target: T8, Type-1 angiotensin II receptor (Homo sapiens, UniProt P30556); test: AT1 receptor antagonists, dose response, selectivity assay for APJ receptor antagonist project, cell-based, uHTS hits (AID 463214); assay type: functional;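 further: antagonist potency against angiotensin II stimulated AT1 response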
T8 sequence (P30556 whole entry): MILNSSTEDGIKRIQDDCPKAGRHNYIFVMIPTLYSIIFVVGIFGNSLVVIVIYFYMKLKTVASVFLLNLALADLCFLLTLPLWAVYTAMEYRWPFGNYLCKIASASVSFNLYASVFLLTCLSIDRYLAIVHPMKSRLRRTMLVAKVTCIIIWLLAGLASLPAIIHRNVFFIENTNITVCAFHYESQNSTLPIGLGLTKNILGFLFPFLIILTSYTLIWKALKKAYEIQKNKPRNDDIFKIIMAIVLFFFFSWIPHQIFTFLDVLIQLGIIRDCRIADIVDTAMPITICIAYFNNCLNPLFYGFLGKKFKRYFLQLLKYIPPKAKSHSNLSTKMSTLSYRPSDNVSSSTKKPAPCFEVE

Chain of Peroxisome proliferator-activated receptor gamma/Nuclear receptor coactivator 2 (P37231 whole entry): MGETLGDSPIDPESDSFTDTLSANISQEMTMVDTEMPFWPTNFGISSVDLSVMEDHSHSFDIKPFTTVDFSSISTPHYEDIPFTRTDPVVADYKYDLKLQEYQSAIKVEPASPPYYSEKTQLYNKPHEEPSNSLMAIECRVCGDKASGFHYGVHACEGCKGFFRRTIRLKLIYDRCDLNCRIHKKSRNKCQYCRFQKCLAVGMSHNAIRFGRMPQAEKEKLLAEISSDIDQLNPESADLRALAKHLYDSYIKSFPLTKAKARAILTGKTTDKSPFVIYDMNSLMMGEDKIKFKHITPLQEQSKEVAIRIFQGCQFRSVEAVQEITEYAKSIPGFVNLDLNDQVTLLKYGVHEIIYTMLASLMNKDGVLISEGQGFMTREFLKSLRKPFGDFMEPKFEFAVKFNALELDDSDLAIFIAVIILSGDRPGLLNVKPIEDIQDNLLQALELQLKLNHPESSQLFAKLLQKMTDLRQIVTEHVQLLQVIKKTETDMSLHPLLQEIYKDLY
Chain of Peroxisome proliferator-activated receptor gamma/Nuclear receptor coactivator 2 (Q15596 whole entry, further chain): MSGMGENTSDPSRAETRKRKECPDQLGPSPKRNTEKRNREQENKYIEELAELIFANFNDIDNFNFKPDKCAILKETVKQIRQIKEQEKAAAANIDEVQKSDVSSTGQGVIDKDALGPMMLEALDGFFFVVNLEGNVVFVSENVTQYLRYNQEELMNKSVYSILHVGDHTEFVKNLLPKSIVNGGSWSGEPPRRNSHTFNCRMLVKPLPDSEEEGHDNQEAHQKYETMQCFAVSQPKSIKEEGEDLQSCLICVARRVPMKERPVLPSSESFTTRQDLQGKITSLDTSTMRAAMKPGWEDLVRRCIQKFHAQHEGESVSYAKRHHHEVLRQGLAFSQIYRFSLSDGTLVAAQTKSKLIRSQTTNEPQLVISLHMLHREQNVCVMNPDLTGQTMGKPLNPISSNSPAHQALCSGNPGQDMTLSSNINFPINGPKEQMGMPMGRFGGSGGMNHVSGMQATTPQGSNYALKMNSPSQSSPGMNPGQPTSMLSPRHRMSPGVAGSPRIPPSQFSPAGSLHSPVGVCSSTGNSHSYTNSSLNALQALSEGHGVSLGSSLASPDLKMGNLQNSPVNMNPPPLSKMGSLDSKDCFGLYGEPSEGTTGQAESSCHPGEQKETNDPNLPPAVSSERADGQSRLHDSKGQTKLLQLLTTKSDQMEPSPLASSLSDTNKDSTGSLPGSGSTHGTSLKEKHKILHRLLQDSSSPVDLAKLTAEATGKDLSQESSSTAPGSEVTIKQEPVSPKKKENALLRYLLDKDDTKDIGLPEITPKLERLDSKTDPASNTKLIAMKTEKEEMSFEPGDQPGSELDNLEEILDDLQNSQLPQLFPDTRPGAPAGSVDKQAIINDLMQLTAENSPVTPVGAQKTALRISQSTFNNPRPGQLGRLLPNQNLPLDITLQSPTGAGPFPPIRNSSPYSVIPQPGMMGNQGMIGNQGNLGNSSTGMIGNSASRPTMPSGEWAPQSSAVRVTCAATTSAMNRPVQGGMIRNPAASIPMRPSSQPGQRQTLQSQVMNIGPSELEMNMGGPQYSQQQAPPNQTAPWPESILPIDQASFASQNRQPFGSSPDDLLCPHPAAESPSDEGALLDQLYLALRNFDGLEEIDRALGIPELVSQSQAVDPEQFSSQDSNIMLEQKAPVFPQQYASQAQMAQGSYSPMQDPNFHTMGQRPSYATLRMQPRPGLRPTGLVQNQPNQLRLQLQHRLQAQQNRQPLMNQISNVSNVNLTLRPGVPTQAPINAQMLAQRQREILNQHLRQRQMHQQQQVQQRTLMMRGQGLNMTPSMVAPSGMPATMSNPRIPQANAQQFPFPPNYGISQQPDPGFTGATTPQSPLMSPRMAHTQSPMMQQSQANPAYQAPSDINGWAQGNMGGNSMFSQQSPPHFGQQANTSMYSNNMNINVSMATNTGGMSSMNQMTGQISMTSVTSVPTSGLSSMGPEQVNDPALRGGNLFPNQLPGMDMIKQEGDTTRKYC

Cc1nnc(O)nc1N/N=C/c1cccs1
EC50 [1]: > 79.4 µM (not active)
IC50 [2]: 25.8 µM (active)
EC50 [3]: > 79.4 µM (not active)
EC50 [4]: > 79.4 µM (not active)

COCCN(CC(=O)Nc1cccc(C)c1C)C(=O)CN1C(=O)NC2(CCCCC2)C1=O
IC50 [5]: 12.2 µM (active)
IC50 [6]: 11.1 µM (active)

N=C(NOS(=O)(=O)c1ccc(Cl)cc1)c1cccnc1
EC50 [7]: > 50 µM (active)

COc1ccc(CCNC(=O)CN(C2CCCCC2)S(C)(=O)=O)cc1OC
IC50 [5]: 5.58 µM (active)
IC50 [6]: 4.1 µM (active)

CS(=O)(=O)N(CCc1ccccc1)CC(=O)Nc1ccc2c(c1)OCO2
EC50 [7]: > 50 µM (active)

CCC(=O)Nc1cc(C(=O)O)ccc1S(=O)(=O)c1ccc(C)cc1
IC50 [5]: 42.2 µM (active)
IC50 [6]: 16.4 µM (active)

O=C(CNC(=O)c1cccc(F)c1)N/N=C/c1ccc([N+](=O)[O-])s1
IC50 [8]: 30.7 µM (active)
AC50 [9]: 7.45 µM (active)
CC50 [10]: 28 µM (active)
CC50 [11]: > 20 µM (active)

O=C(CSc1ncnc2nc[nH]c12)Nc1ccccc1C(F)(F)F
IC50 [5]: 93.7 µM (active)
IC50 [6]: 50.8 µM (active)

c1ccc(CSc2ccc(-c3cccs3)nn2)nc1
EC50 [7]: > 50 µM (active)

CC(C)=CCN1CCN(Cc2nc(-c3ccccc3)cs2)CC1CCO (stereo not given)
EC50 [7]: > 50 µM (active)

CCOC(=O)c1ccc(COC(=O)c2cc3ccccc3oc2=O)o1
IC50 [8]: > 50 µM (active)

CSC(=S)N/N=C(\C)c1ccccc1
IC50 [12]: > 32 µM
IC50 [13]: 8.37 µM (active)
EC50 [14]: > 31.5 µM (inactive)

Cc1ccc(CN2CCC(CNC(=O)c3ccc(NC(=O)C4=CSCCO4)cc3)CC2)cc1
IC50 [15]: > 20 µM (inactive)
IC50 [16]: 19.4 µM (active)
IC50 [17]: > 20 µM (inactive)

Cc1oc(C(=O)O)cc1COc1ccc2c(oc(=O)c3ccccc32)c1C
IC50 [18]: > 100 µM (not active)

Cc1ccc(-c2cc(C(F)F)nc(S(C)(=O)=O)n2)cc1
IC50 [8]: 7.88 µM (active)
EC50 [19]: 13.1 µM (active)
CC50 [10]: 23.9 µM (active)
CC50 [11]: > 20 µM (active)

O=C1NN(c2cccc(Cl)c2)C(=O)/C1=C\c1ccc(-c2cccc(C(=O)O)c2)o1
IC50 [18]: > 100 µM (not active)

CCCOc1cccc(-c2cc(C(=O)N/N=C/c3ccccn3)c3ccccc3n2)c1
EC50 [20]: > 40 µM (inactive)
IC50 [12]: > 32 µM
IC50 [13]: 8.44 µM (active)
EC50 [21]: 2.21 µM (active)
EC50 [14]: > 31.5 µM (inactive)
EC50 [22]: 1.95 µM (active)
IC50 [23]: 5.9 µM (active)
